Earlier results in patent US7910613B2, “2-acylaminothiazole derivatives” (H. Lundbeck A/S, priority 2004, dated 2011).
Like-named read-outs stand apart in the source and are kept apart here.

Assays:
mice [1] = conditions: mouse forced swimming test
[2] = test system: unilateral 6-OHDA (6-hydroxydopamine) lesioned mice and rats; conditions: elicited by a subtreshold dose of levodopa
[3] = test system: MPTP treated mice and 6-OHDA-lesioned rats
mice [4] = conditions: for total immobility time: mouse tail suspension test
[5] = mice previously screened for having high immobility time

Compound	immobility time (mice [1])	contralateral rotations [2]	total immobility time (mice [4])	immobility (mice [4]; [5])	other results
Nc1nc(Cl)nc2c1ncn2[C@@H]1O[C@H](CO)[C@@H](O)[C@H]1O [2-chloroadenosine]	increased immobility time				
CCn1c(=O)c2c(nc(/C=C/c3ccc(OC)c(OC)c3)n2C)n(CC)c1=O [KW-6002, 8-[(1E)-2-(3,4-dimethoxyphenyl)ethenyl]-1,3-diethyl-3,7-dihydro-7-methyl-1H-purine-2,6-dione]		enhance contralateral rotations	reduced the total immobility time		motor impairment induced by MPTP (non-human primates): significantly improves motor impairment; dyskinesias (non-human primates; MPTP): without causing dyskinesias; functional loss of dopaminergic nerve terminals in the striatum [3]: prevented functional loss of dopaminergic nerve terminals in the striatum; gliosis normally induced around degenerating neurons [3]: prevented gliosis
Nc1nc2c(cnn2CCc2ccccc2)c2nc(-c3ccco3)nn12 [SCH58261, 2-(2-furanyl)-7-(2-phenylethyl)-7H-pyrazolo[4,3-e][1,2,4]triazolo[1,5-c]pyrimidin-5-amine]		enhance contralateral rotations	reduced the total immobility time	reduce immobility	immobility (mice [4]; mice selectively bred for their helplessness): reduced immobility
Nc1nc(NCCc2ccc(O)cc2)nc2nc(-c3ccco3)nn12 [ZM241385, 4-(2-[7-amino-2-(2-furyl)[1,2,4]triazolo[2,3-a][1,3,5]triazin-5-ylamino]-ethyl)phenol]				reduce immobility	
Nc1ncnc2c1ncn2[C@@H]1O[C@H](CO)[C@@H](O)[C@H]1O [adenosine]	increased immobility time				
